Experiment [1] deals with IKK family members. The settings on record: cited from earlier work.
Experiment [2] deals with T1, PTP1B (Homo sapiens, UniProt P18031).
T1 sequence (P18031 1-405): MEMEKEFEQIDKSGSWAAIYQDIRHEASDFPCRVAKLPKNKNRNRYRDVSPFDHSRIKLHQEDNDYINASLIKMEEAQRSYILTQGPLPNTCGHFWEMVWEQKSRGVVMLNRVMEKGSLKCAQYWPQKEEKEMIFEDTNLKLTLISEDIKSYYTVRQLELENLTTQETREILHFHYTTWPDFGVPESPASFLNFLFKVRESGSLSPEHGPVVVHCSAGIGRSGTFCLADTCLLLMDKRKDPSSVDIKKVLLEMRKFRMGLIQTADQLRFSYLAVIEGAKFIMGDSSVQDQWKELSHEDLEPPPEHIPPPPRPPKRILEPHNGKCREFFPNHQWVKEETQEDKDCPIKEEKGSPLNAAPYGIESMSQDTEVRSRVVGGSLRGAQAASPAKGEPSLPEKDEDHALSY
Kind of experiment: Michaelis-Menten analysis of PTP1B with DiFMUP without and with inhibitor. Format: biochemical. The note with it: read-out: drop of maximum rate (Vmax) in the presence of inhibitor.

For experiment [3], the target named is LAR (Homo sapiens, UniProt P10586). The experiment can be described thus: Inhibition of a panel of PTPs: LAR. Format: biochemical.
Sequence of LAR (P10586 30-1907, species assumed): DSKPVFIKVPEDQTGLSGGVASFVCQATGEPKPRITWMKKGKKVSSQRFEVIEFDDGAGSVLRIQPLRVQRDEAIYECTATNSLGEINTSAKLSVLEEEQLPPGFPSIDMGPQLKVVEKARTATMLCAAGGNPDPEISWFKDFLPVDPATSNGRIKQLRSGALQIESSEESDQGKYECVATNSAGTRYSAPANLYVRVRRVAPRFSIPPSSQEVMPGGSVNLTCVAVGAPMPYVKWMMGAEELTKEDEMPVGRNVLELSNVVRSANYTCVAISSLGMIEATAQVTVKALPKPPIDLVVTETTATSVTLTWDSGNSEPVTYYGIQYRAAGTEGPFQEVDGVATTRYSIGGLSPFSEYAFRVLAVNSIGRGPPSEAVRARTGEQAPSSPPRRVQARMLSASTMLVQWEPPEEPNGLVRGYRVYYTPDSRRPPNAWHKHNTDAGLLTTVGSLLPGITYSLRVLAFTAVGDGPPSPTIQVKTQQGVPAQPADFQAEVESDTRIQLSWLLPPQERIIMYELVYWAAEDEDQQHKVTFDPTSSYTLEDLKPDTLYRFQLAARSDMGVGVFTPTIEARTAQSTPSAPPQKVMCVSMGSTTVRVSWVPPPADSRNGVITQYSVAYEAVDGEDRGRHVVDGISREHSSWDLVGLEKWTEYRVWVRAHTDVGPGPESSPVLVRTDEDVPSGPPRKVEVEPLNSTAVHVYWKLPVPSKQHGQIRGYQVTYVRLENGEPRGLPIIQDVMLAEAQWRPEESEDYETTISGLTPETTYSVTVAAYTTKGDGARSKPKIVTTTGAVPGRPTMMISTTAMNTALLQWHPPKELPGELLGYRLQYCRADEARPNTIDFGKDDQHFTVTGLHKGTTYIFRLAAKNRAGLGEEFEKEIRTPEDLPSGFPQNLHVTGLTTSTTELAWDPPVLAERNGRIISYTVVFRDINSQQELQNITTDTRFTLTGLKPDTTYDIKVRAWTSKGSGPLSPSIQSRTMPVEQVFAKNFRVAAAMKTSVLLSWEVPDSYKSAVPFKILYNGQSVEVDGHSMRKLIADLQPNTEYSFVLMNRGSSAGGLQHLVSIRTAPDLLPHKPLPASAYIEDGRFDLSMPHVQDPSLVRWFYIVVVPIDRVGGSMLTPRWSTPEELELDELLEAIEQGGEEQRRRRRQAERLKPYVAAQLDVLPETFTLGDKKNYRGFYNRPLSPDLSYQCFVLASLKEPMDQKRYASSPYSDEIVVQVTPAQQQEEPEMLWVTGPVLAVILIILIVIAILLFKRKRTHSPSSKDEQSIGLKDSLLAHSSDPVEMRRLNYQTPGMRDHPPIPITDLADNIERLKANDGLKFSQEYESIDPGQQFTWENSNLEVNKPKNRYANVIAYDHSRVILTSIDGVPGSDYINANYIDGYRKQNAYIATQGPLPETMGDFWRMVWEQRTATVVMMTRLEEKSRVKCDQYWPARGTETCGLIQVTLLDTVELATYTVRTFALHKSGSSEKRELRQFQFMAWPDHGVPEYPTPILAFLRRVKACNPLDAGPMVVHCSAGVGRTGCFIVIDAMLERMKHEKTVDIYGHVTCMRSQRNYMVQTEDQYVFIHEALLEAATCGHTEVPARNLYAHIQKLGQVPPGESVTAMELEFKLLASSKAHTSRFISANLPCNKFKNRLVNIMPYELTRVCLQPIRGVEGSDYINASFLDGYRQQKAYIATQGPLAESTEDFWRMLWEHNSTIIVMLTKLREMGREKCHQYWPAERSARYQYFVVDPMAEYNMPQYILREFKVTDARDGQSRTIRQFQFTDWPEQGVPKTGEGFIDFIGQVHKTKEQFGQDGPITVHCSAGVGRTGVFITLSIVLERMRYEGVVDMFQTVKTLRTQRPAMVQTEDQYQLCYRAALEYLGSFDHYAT
The target of experiment [4] is T2, TC-PTP (Homo sapiens, UniProt P17706).
T2 sequence (P17706 1-415): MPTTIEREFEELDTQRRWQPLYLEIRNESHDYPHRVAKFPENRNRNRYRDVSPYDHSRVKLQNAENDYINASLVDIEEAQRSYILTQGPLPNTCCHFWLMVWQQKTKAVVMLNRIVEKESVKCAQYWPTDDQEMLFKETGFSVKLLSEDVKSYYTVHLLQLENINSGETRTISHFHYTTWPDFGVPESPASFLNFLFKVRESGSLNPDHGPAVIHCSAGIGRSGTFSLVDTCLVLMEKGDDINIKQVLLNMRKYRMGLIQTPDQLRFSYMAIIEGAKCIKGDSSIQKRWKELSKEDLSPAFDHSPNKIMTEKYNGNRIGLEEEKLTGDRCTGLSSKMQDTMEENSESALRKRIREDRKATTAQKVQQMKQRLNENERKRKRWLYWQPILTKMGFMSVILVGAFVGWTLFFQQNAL
The experiment can be described thus: Inhibition of a panel of PTPs: TC-PTP. Format: biochemical.

In experiment [5] the target is T1, PTP1B. The experiment can be described thus: Inhibition of a panel of PTPs: PTP1B phosphatase activity, DiFMUP substrate. The format is biochemical.
For experiment [6], the target named is PTEN (Homo sapiens, UniProt P60484). The experiment can be described thus: Inhibition of a panel of PTPs: PTEN. The format is biochemical.
Sequence of PTEN (P60484 whole entry, species assumed): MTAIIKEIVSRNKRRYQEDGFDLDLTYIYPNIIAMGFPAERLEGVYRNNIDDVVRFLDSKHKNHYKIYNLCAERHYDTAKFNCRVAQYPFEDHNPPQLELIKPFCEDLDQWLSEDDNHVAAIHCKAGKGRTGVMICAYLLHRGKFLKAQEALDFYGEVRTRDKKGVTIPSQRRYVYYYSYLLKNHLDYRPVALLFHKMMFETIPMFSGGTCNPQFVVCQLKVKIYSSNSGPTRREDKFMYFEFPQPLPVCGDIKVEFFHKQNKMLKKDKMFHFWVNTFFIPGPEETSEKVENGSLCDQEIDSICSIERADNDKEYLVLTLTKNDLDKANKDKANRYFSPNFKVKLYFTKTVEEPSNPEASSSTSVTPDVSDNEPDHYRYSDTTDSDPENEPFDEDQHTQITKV
Experiment [7] concerns the target T3, DUSP14 (Homo sapiens, UniProt O95147).
T3 sequence (O95147 1-198): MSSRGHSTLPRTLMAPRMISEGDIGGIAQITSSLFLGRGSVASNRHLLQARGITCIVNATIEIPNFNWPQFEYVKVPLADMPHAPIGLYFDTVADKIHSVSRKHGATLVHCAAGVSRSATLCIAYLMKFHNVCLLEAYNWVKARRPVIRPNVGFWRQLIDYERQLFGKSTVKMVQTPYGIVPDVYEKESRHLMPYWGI
Kind of experiment: Inhibition of a panel of PTPs: DUSP14. Format: biochemical.

Experiment [8] deals with T1, PTP1B. Kind of experiment: Kinetics of time-dependent PTP1B inactivation, continuous DiFMUP assay. The format is biochemical. The note with it: catalase 0.5 μg/mL (1 unit per assay); PTP1B 5 nM; HEPES pH 7.0, 5 mM DTT.
Experiment [9] concerns the target PTP-alpha (Homo sapiens, UniProt P18433). The experiment can be described thus: Inhibition of a panel of PTPs: PTP-alpha. The format is biochemical.
Experiment [10] has as its target T4, DUSP4 (Homo sapiens, UniProt Q13115).
T4 sequence (Q13115 1-394): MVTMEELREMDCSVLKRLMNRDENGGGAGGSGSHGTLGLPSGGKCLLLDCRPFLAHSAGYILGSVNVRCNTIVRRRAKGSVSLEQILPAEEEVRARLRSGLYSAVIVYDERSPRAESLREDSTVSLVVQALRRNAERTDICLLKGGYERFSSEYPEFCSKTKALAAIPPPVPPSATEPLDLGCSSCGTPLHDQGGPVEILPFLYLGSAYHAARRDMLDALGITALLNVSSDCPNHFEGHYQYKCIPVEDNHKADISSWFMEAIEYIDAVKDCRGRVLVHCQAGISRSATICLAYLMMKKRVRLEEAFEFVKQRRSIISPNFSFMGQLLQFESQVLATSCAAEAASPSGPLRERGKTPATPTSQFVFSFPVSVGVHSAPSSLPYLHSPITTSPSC
Kind of experiment: Inhibition of a panel of PTPs: DUSP4. Format: biochemical.

Experiment [11] concerns the target T5, PTP-PEST (Homo sapiens, UniProt Q05209).
T5 sequence (Q05209 1-780): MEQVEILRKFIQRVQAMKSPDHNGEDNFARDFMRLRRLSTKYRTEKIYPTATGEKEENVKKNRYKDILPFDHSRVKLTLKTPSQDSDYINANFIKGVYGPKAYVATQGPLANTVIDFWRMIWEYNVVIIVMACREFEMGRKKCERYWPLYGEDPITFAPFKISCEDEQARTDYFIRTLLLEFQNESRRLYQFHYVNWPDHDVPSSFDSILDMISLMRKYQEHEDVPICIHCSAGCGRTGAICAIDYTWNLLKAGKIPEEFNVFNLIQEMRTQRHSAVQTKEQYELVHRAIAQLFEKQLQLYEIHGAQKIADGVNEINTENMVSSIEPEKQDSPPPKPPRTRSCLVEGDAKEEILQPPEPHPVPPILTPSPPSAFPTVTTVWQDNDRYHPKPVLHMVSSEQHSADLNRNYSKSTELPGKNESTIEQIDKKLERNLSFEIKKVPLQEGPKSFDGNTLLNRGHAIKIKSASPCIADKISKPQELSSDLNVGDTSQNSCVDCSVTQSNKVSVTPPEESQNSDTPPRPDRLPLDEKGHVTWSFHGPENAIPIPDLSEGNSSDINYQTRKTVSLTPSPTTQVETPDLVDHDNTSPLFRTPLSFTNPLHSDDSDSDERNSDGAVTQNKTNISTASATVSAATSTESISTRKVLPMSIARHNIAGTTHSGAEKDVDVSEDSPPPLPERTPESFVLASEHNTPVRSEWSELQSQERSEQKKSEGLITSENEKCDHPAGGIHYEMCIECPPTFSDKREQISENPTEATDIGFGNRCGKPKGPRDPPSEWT
The experiment can be described thus: Inhibition of a panel of PTPs: PTP-PEST. The format is biochemical.

Experiment [12] deals with T6, DUSP16 (Homo sapiens, UniProt Q9BY84).
T6 sequence (Q9BY84 1-665): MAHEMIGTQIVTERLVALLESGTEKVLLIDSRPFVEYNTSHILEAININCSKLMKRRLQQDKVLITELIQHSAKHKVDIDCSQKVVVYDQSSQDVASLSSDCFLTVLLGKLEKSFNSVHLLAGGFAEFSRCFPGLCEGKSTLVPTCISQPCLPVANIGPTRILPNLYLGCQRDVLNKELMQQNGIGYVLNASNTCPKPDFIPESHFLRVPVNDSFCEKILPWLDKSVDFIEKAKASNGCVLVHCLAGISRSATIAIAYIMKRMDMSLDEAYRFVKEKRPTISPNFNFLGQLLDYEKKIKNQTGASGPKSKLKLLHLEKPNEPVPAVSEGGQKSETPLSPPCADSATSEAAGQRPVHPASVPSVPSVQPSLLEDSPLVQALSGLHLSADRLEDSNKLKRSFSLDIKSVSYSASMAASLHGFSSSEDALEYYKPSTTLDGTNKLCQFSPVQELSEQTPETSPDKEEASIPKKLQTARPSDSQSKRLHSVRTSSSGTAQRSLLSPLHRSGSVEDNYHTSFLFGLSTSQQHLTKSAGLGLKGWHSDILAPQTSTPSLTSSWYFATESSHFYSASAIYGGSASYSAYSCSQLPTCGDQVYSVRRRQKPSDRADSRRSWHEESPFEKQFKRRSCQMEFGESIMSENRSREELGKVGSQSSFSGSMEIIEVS
Kind of experiment: Inhibition of a panel of PTPs: DUSP16. The format is biochemical.

Experiment [13] concerns the target T7, DUSP10 (Homo sapiens, UniProt Q9Y6W6).
T7 sequence (Q9Y6W6 1-482): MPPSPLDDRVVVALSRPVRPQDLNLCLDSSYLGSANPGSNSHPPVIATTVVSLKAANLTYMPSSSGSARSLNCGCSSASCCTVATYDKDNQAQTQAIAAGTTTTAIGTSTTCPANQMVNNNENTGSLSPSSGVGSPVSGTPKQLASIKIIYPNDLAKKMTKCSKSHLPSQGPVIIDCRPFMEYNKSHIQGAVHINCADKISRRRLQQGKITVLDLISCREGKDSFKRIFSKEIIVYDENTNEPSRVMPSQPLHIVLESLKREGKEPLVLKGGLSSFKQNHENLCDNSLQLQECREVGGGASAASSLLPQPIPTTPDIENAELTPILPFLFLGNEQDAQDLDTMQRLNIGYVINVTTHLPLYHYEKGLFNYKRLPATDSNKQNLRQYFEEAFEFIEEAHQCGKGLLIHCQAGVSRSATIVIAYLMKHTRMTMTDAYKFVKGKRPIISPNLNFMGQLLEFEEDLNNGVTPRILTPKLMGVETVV
The experiment can be described thus: Inhibition of a panel of PTPs: DUSP10. Format: biochemical.

Experiment [14] addresses T1, PTP1B. The note with it: cited from earlier work.
Experiment [15] relates to RAW 264 macrophages. The experiment can be described thus: Anti-phosphotyrosine. The settings on record: 1 mM, 30 minutes; in the presence and absence of LPS. The format is cell-based.

These results are taken from PMC3712534 (The FEBS journal, 2013).

SMILES strings stand for the structures. pKi: −log10 of the molar value.

Sequence of PTP-alpha (P18433 20-802): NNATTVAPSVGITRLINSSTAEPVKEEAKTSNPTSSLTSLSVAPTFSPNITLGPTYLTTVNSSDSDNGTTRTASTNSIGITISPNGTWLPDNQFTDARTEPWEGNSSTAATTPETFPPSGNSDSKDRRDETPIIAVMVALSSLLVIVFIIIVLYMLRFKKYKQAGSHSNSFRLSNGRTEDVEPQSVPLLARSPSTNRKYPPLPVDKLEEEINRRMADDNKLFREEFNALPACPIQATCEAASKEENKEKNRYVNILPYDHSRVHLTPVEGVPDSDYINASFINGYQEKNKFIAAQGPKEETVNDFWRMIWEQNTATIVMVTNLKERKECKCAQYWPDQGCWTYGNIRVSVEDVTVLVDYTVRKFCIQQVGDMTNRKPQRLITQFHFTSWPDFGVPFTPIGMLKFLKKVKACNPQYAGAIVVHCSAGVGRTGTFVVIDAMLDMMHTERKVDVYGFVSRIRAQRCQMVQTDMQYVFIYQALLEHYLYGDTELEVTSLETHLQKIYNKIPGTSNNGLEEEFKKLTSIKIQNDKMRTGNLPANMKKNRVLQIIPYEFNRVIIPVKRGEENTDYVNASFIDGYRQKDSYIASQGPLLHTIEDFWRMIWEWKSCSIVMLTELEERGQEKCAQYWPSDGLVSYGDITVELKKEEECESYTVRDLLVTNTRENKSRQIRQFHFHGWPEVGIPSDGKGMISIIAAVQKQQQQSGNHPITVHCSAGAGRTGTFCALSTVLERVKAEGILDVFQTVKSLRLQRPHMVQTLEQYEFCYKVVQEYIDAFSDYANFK

As to `Cc1ccc(S(=O)(=O)/C=C/C#N)cc1` [BAY 11-7082], the “inhibition of IKK family members in vitro” value in experiment [1] was “does not inhibit”. The inhibition at 2 µM in experiment [2] was ~50%. The pKi in experiment [3] is 5.60; in [4] it was 5.82; in experiment [5], 6.00; in experiment [6], 4.00; in [7], 3.74; in experiment [9] it was 5.64. For the same compound, the pKi was 3.85 in [10], 6.05 in [11], 3.90 in experiment [12] and 3.82 in experiment [13]. The “rate of inactivation of PTP1B in the absence and presence of catalase” value in [8] is “the same”.

As to `CC(C)(C)c1ccc(S(=O)(=O)/C=C/C#N)cc1` [BAY 11-7085], the pKi in [3] was 4.24; in experiment [4], 4.41; in experiment [5], 4.44; in experiment [6], 3.70; in [7] it was 3.68; in experiment [9] it was 4.35. Further, the negative logarithm of the Ki (pKi) in experiment [10] was 3.80; in experiment [11], 4.40; in experiment [12] it was 3.69; in [13], 3.74.

As to `OO` [H2O2, hydrogen peroxide], the “rate of oxidation of the enzyme” value in experiment [14] was 10 M⁻¹ s⁻¹.

For `[Na+].[Na+].[Na+].[O]=[V]([O-])([O-])[O-]` [sodium orthovanadate], the “extent of tyrosine phosphorylation (anti-pTyr immunoblot)” value in [15] is “enhanced”.
